Experimental data: patent publication US10426717B2, “Glycol esters of dicaffeoylquinic acid and uses thereof” (PLANT ADVANCED TECHNOLOGIES PAT, priority 2016, dated 2019)

Columns and labels:
[1] = test system: human dermis fibroblasts NHDFs; experiment: Cytotoxicity study of the fractions, cell viability to MTS (Example 3); type: cell-based; settings: 24 h, 100, 50, 25, 12.5 and 6.25 μM, cytotoxicity threshold 80% viability
Protocol: (§1) The study has been made on human dermis fibroblasts NHDFs (ATCC, CRL-2522, origin: foreskin) at about 40% of their proliferative potential in vitro. These cells have been cultivated in single layer in DMEM medium (Invitrogen, 31885-049) containing 10% foetal calf serum (Invitrogen, 10270-106) and antibiotics (penicillin/streptomycin, Invitrogen, 15140-122). These cells have been maintained in a wet atmosphere at 37° C. containing 5% CO2.
In order to determine the optimum analysis concentration for the fractions, a preliminary experiment has been made on human dermis fibroblasts NHDFs having performed 30.3 population doublings. This study consisted in evaluating cell viability to MTS (3-(4,5-dimethythiazol-2-yl)-5-(3-carboxy-methoxyphenyl)-2-(4-sulphophenyl)-2H-tetrazolium) (Promega, G3581) after 24 h treatment for the 4 fractions, at 5 concentrations (100 μM, 50 μM, 25 μM, 12.5 μM, and 6.25 μM) and in culture triplicates (n=3). The fractions and extract have been prepared in DMSO and DPG70 respectively, the effect of these 2 vehicles has also been tested.
0.08% SDS (sodium dodecyl sulphate) has been used as a cytotoxicity positive control in order to validate the experiment.
In order to determine the optimum study concentration of the 4 fractions, a cytotoxicity study has been made on human dermis fibroblasts NHDFs, based on 5 concentrations after 24 h contact (n=3). The experimental parameters were identical to those used in the following for the study of the effects on the gene expression in terms of culture passages of the cells, confluence and contact time. The effect of the 2 vehicles (DPG70 and DMSO) has been tested in parallel.
The results have been compared to the untreated control and 0.08% SDS has been used as a cytotoxicity positive control in order to validate the experiment. The cytotoxicity threshold has been arbitrarily set to 80% viability.

fibroblasts NHDFs [2] = experiment: Real time qPCR of Nrf-2 regulated genes (Example 3); type: cell-based, human; settings: 24 h, fraction at 50 μM, vs 0.5% DMSO control
Source text: In order to determine which fraction of the extract according to the invention is responsible for this effect, the expression variations of seven target markers (involved in cellular and skin ageing induced by four fractions of an Ipomoea batatas root extract, and by the extract itself, in fibroblasts have been measured by qRT-PCR. A condition corresponding to fibroblasts NHDFs irradiated with UVA (10 J/cm^2) has been analysed in parallel as a positive control for the test.
The seven markers studied (HOMX1, NQO1, HSPA1A, GCLM, GSTP1, UGT1A6 and NOS2) are genes the expression of which is known to be regulated by the transcription factor Nrf-2, playing a major role in the antioxidant defence.
as §1
The extraction of total RNAs has been made using the RNeasy kit (Qiagen, 74106), after 24 h treatment with the fractions or 6 h after UVA irradiation. The cells have been rinsed with PBS and lysed in ad hoc buffer (culture triplicates have been made for each condition). The extraction and purification of the RNAs have been made according to the supplier's instructions. The total RNAs have been preserved at −80° C. afterwards.
The real time qPCR method has been used to quantise the expression of target markers in the different populations of RNAs. The specific TaqMan probes have been synthesised by the company Applied Biosystems.
The target sequences of the genes of interest have been amplified by PCR by using the “TaqMan Gene Expression Assays” (Applied Biosystems). […] The TaqMan probes have been grafted with a fluorophore (FAM) at the 5′ end of the sequence with a 3′ fluorescence quencher. […]

fibroblasts NHDFs [3] = experiment: Induction of a radical stress by the actives, ROS with H2DCFDA probe; type: cell-based, human; settings: fibroblasts treated with Trolox, normalised to MTS viability, vs 0.1% EtOH control
Protocol: The study has been made on human dermis fibroblasts NHDFs (ATCC, CRL-2522, origin: foreskin) cultured in single layer in DMEM medium (Invitrogen, 31885-049) containing 10% foetal calf serum (Invitrogen, 10270-106) and antibiotics (Penicillin/Streptomycin, Invitrogen, 15140-122). These cells have been maintained in a wet atmosphere at 37° C. containing 5% CO2. In order to validate the hypothesis of a hormetic effect, it has been checked beforehand that the treatment by the actives alone induced a radical stress. The test used is based on the use of the fluorescent probe H2DCFDA (2′-7′dichlorodihydrofluorescein diacetate, Fischer Scientific, #D399). The probe diffusion into the cell enables its acetate group to be cleaved by intracellular esterases. […] The production of free radicals can thus be quantised by the level of fluorescence emitted by the probe oxidised. […] After rinsing, the fluorescence emitted has been quantised (excitation: 485 nm; emission: 520 nm). In order to provide a result representative of the cellular population of each condition, a cellular viability test (MTS) has been made immediately after quantising the fluorescence emitted. The fluorescence values have thus been normalised with respect to the cellular viabilities.

Compound | cytotoxicity (cell viability to MTS) [1] | overexpression of genes of interest (HMOX1, HSPA1A, NQO1, GCLM, GSTP1; FIGS. 7 to 11) (fibroblasts NHDFs [2]) | production of reactive oxygen species (ROS), radical stress (fibroblasts NHDFs [3])
O=C(/C=C/c1ccc(O)c(O)c1)OC1CC(O)(C(=O)O)CC(O)C1OC(=O)/C=C/c1ccc(O)c(O)c1 (stereo not shown) [STL964, 3,4-DCQ (Isochlorogenic acid B)] | no cytotoxicity | do not induce an overexpression | –
O=C(/C=C/c1ccc(O)c(O)c1)OC1CC(O)(C(=O)O)CC(OC(=O)/C=C/c2ccc(O)c(O)c2)C1O (stereo not shown) [STL965, 3,5-DCQ (Isochlorogenic acid A)] | no cytotoxicity | do not induce an overexpression | –
O=C(/C=C/c1ccc(O)c(O)c1)OC1CC(O)(C(=O)O)CC(O)C1OC(=O)/C=C/c1ccc(O)c(O)c1 (stereo not shown) [STL967, 4,5-DCQ (Isochlorogenic acid C)] | no cytotoxicity | do not induce an overexpression | –
Cc1c(C)c2c(c(C)c1O)CCC(C)(C(=O)O)O2 (stereo not shown) [Trolox] | – | – | no radical stress
